Measurements taken from patent US9051345B2, “Metalloinsertor complexes targeted to DNA mismatches” (CALIFORNIA INSTITUTE OF TECHNOLOGY, priority 2011, dated 2015).
Peptide text beside a SMILES is read from it. * marks the point of attachment. Cbz = O=C(OCc1ccccc1)*; CH2F = FC*

Assays:
HCT116O cells [1] = assay: ICP-MS assay, nuclear and mitochondrial rhodium accumulation; type: cell-based, human; conditions: 10 uM, 24 h, comparison in words
Method: To assay the subcellular localization of the rhodium complexes, an inductively coupled plasma mass spectrometry (ICP-MS) assay was used to quantify the uptake of the complexes in both whole cell extracts and nuclear and mitochondrial fractions.
Mitochondrial Rhodium Accumulation. With reference to FIG. 31B, HCT116O cells were plated in 75 cm^2 culture flasks at 2.0×10^7 cells/plate and incubated at 37° C., 5% CO2 for 24 h. Rhodium was added to 10 uM and cells were grown for an additional 24 h. The cells were then harvested by trypsinization and centrifuged for 5 min at 1,200 rpm. The supernatants were decanted, and the cell pellets were resuspended in 1 ml cold PBS (pH 7.2). The cells were centrifuged again for 5 min at 1,200 rpm. The supernatants were discarded, and the resultant pellets were resuspended in 0.5 ml mitochondrial extraction buffer (200 mM mannitol, 68 mM sucrose, 50 mM Pipes, 50 mM KCl, 5 mM EGTA, 2 mM MgCl2; 1 mM DTT and protease inhibitors were added right before use). The samples were incubated on ice for 20 min, and the suspensions were homogenized via passage through a needle and syringe (35×). The homogenized cells were then centrifuged for 5 min at 750 rpm. The supernatants were collected and spun again at 14,000 g for 10 min. The supernatants were decanted, and the resulting mitochondrial pellet was suspended in 0.8 ml H2O via probe sonication. […]

HCT116O cells [2] = assay: MTT cytotoxicity assay; type: cell-based, human; conditions: for effect of PARP inhibitor on the selective MMR-dependent effects of the rhodium compound: with 20 μM [Rh(HDPA)2chrysi]^3+, HCT116N versus HCT116O
Method: Cytotoxicity assays were performed as described in Mosmann, 1983, J. Immunol. Methods, 65, 55-63, the entire contents of which is incorporated herein by reference. HCT116N and HCT116O cells were plated in 96-well plates at 50,000 cells/well and incubated with rhodium for the durations specified. After incubation with the indicated rhodium complexes, cells were labeled with MTT for 4 hours at 37° C. under 5% CO2 and humidified atmosphere. The resulting formazan crystals were dissolved with solubilizing reagent purchased from Roche according to the manufacturer's instructions. The dissolved formazan was quantified as the absorbance at 570 nm minus the background absorbance at 690 nm. Percent viability was determined as the ratio of the amount of formazan in the treated cells to that of the untreated cells.
In order to elucidate the mechanism of action for the cytotoxicity caused by a metalloinsertor complex of Formula I, the MTT cytotoxicity assay was repeated in the absence and presence of the pan-caspase inhibitor Z-VAD-FMK. This inhibitor works by irreversibly binding to the active site of caspases which participate in the apoptotic pathway. […] The HCT116N and HCT116O cell lines were treated with 0-30 μM of the [Rh(HDPA)2chrysi]^3+ complex for 24-72 hours. […]
In order to determine the mechanism of action for cytotoxicity caused by a metalloinsertor complex of Formula I, the MTT cytotoxicity assay was repeated in conjunction with a panel of poly-ADP ribose polymerase (PARP) inhibitors: DPQ, 3-AB, 4-AN, and ABT-888, as described in Costantino et al., 2001, J. Med. Chem., 44, 3786-3794; Purnell et al., 1980, Biochem. J. 185, 775-777; Banasik et al., 1992, J. Biol. Chem. 267, 1569-1575; and Donawho et al., 2007, Clin. Cancer Res., 13, 2728-2737, the entire contents of all of which are incorporated herein by reference. The HCT116N and HCT116O cell lines were treated with 0 or 20 μM of the [Rh(HDPA)2chrysi]^3+ complex for 72 hours, with or without one of the four inhibitors. The inhibitor 3,4-Dihydro-5[4-(1-piperindinyl)butoxy]-1(2H)-isoquinoline (DPQ) was added to a final concentration of 0, 25, or 50 μM; the inhibitor 3-aminobenzamide (3-AB) was added to a final concentration of 0, 2, or 3 mM; the inhibitor 4-amino-1,8-napthalimide (4-AN) was added to a final concentration of 0, 10, or 20 μM; and the inhibitor 2-((R)-2-Methylpyrrolidin-2-yl)-1H-benzimidazole-4-carboxamide (ABT-888) was added to a final concentration of 0, 5, or 10 μM. […] For example, in the case of the compound DPQ, this difference was 43±2.7% without inhibitor and 0.6±3.0% with inhibitor.

HCT116O cells [3] = conditions: HCT116N and HCT116O; called known; cited from earlier work

[Rh(PrDPA)2chrysi]^3+
mitochondrial rhodium content (HCT116O cells [1]): greater than that of cells incubated with [Rh(DPAE)2(chrysi)]^3+
selectivity of inhibitory effects after 72 hours (HCT116O cells [2]; MTT, HCT116N and HCT116O, 72 hours): non-selective inhibitory effects

[Rh(chrysi)(phen)(DPE)]Cl3 [[Rh(chrysi)(phen)(DPE)]^2+]
selective cytotoxicity, MMR-deficient HCT116O versus MMR-proficient HCT116N cells (HCT116O cells [2]): selective cytotoxicities towards the MMR-deficient HCT116O cells

[Rh(chrysi)(phen)(PPE)]^2+
selective cytotoxicity, MMR-deficient HCT116O versus MMR-proficient HCT116N cells (HCT116O cells [2]): selective cytotoxicities towards the MMR-deficient HCT116O cells

[Rh(bpy)2chrysi]^3+
cytotoxicity (known property) (HCT116O cells [3]): non-toxic

Nc1ccc2c3c(cccc13)C(=O)NC2=O [4-AN, 4-amino-1,8-napthalimide, reference compound]
effect of PARP inhibitor on the selective MMR-dependent effects of the rhodium compound (HCT116O cells [2]; MTT, 72 hours): completely abolished the selective MMR-dependent effects

O=C1NCCc2c(OCCCCN3CCCCC3)cccc21 [DPQ, 3,4-Dihydro-5[4-(1-piperindinyl)butoxy]-1(2H)-isoquinoline, reference compound]
effect of PARP inhibitor on the selective MMR-dependent effects of the rhodium compound (HCT116O cells [2]; MTT, 72 hours): completely abolished the selective MMR-dependent effects

[Rh(chrysi)(phen)(PyPrO)]^2+
selective cytotoxicity, MMR-deficient HCT116O versus MMR-proficient HCT116N cells (HCT116O cells [2]): selective cytotoxicities towards the MMR-deficient HCT116O cells

C[C@]1(c2nc3c(C(N)=O)cccc3[nH]2)CCCN1 [ABT-888, 2-((R)-2-Methylpyrrolidin-2-yl)-1H-benzimidazole-4-carboxamide, reference compound]
effect of PARP inhibitor on the selective MMR-dependent effects of the rhodium compound (HCT116O cells [2]; MTT, 72 hours): completely abolished the selective MMR-dependent effects

[Rh(NH3)4phzi]Cl3 [[Rh(NH3)4phzi]^3+]
selective cytotoxicity, MMR-deficient HCT116O versus MMR-proficient HCT116N cells (HCT116O cells [2]): selective cytotoxicities towards the MMR-deficient HCT116O cells

COC(=O)C[C@H](NC(=O)[C@H](C)NC(=O)[C@@H](NC(=O)OCc1ccccc1)C(C)C)C(=O)CF [Z-VAD-FMK, reference compound] (Cbz-Val-Ala-Asp(OMe)-CH2F)
protection from rhodium by the caspase inhibitor at 20 M (so in the source) (HCT116O cells [2]; MTT, HCT116N and HCT116O, with [Rh(HDPA)2chrysi]^3+): no protection from rhodium
protection from rhodium by the caspase inhibitor at 40 μM (HCT116O cells [2]; MTT, HCT116O, with [Rh(HDPA)2chrysi]^3+): some protection from rhodium

[Rh(MeDPA)2chrysi]Cl3 [[Rh(MeDPA)2chrysi]^3+]
selective cytotoxicity, MMR-deficient HCT116O versus MMR-proficient HCT116N cells (HCT116O cells [2]): differential toxicity against the HCT116O cell line comparable to that of [Rh(HDPA)2chrysi]^3+
toxicity in MMR-deficient HCT116O versus HCT116N cells at 48 hours (HCT116O cells [2]; MTT, 48 hours): enhance toxicity in the MMR-deficient HCT116O cells

[Rh(DPAE)2chrysi]^3+
share of cellular rhodium complex that is nuclear (HCT116O cells [1]): greater percentage
selective cytotoxicity, MMR-deficient HCT116O versus MMR-proficient HCT116N cells (HCT116O cells [2]): increased cytotoxicity to the MMR-deficient HCT116O cells
incubation time at which cell selective activity is exhibited (HCT116O cells [2]; HCT116O versus HCT116N): ≤ 6 h

NC(=O)c1cccc(N)c1 [3-AB, 3-aminobenzamide, reference compound]
effect of PARP inhibitor on the selective MMR-dependent effects of the rhodium compound (HCT116O cells [2]; MTT, 72 hours): completely abolished the selective MMR-dependent effects
